Experimental data from ChEMBL document CHEMBL1158969, “Studies on the synthesis of sesquiterpene lactones, 12. Synthesis of (+)-colartin, (+)-arbusculin A, and their C-4 epimers and their biological activities” (1991).
Active and inactive are the calls of the source.

Assays:
Format in all cases: functional, organism-based
Cucumis sativus [1] = test: Growth regulatory activity on Cucumis sativus root assessed as inhibition of germination and seedling growth at 1000 ppm after 10 days
Cucumis sativus [2] = test: Growth regulatory activity on Cucumis sativus root assessed as inhibition of germination and seedling growth at 500 ppm after 10 days
Brassica juncea [3] = test: Growth regulatory activity on Brassica juncea stem assessed as inhibition of germination and seedling growth at 250 ppm after 10 days
Echinochloa frumentacea [4] = test: Growth regulatory activity on Echinochloa frumentacea root assessed as complete inhibition of germination and seedling growth at 1000 ppm after 10 days
Echinochloa frumentacea [5] = test: Growth regulatory activity on Echinochloa frumentacea stem assessed as inhibition of germination and seedling growth at 500 ppm after 10 days
Brassica juncea [6] = test: Growth regulatory activity on Brassica juncea stem assessed as complete inhibition of germination and seedling growth at 500 ppm after 10 days
Brassica juncea [7] = test: Growth regulatory activity on Brassica juncea stem assessed as complete inhibition of germination and seedling growth at 1000 ppm after 10 days
Brassica juncea [8] = test: Growth regulatory activity on Brassica juncea root assessed as complete inhibition of germination and seedling growth at 1000 ppm after 10 days
Cucumis sativus [9] = test: Growth regulatory activity on Cucumis sativus root assessed as inhibition of germination and seedling growth at 100 ppm after 10 days
Brassica juncea [10] = test: Growth regulatory activity on Brassica juncea root assessed as inhibition of germination and seedling growth at 250 ppm after 10 days
Brassica juncea [11] = test: Growth regulatory activity on Brassica juncea root assessed as complete inhibition of germination and seedling growth at 500 ppm after 10 days
Echinochloa frumentacea [12] = test: Growth regulatory activity on Echinochloa frumentacea stem assessed as complete inhibition of germination and seedling growth at 1000 ppm after 10 days
Cucumis sativus [13] = test: Growth regulatory activity on Cucumis sativus stem assessed as inhibition of germination and seedling growth at 1000 ppm after 10 days
Cucumis sativus [14] = test: Growth regulatory activity on Cucumis sativus root assessed as inhibition of germination and seedling growth at 250 ppm after 10 days
Echinochloa frumentacea [15] = test: Growth regulatory activity on Echinochloa frumentacea root assessed as inhibition of germination and seedling growth at 500 ppm after 10 days
Cucumis sativus [16] = test: Growth regulatory activity on Cucumis sativus stem assessed as inhibition of germination and seedling growth at 100 ppm after 10 days
Cucumis sativus [17] = test: Growth regulatory activity on Cucumis sativus stem assessed as complete inhibition of germination and seedling growth at 500 ppm after 10 days
Cucumis sativus [18] = test: Growth regulatory activity on Cucumis sativus root assessed as complete inhibition of germination and seedling growth at 1000 ppm after 10 days
Cucumis sativus [19] = test: Growth regulatory activity on Cucumis sativus root assessed as complete inhibition of germination and seedling growth at 500 ppm after 10 days
Cucumis sativus [20] = test: Growth regulatory activity on Cucumis sativus stem assessed as complete inhibition of germination and seedling growth at 1000 ppm after 10 days
Echinochloa frumentacea [21] = test: Growth regulatory activity on Echinochloa frumentacea stem assessed as inhibition of germination and seedling growth at 1000 ppm after 10 days
Brassica juncea [22] = test: Growth regulatory activity on Brassica juncea stem assessed as inhibition of germination and seedling growth at 1000 ppm after 10 days
Cucumis sativus [23] = test: Growth regulatory activity on Cucumis sativus stem assessed as inhibition of germination and seedling growth at 250 ppm after 10 days
Brassica juncea [24] = test: Growth regulatory activity on Brassica juncea root assessed as inhibition of germination and seedling growth at 500 ppm after 10 days
Echinochloa frumentacea [25] = test: Growth regulatory activity on Echinochloa frumentacea root assessed as inhibition of germination and seedling growth at 1000 ppm after 10 days
Cucumis sativus [26] = test: Growth regulatory activity on Cucumis sativus stem assessed as inhibition of germination and seedling growth at 500 ppm after 10 days
Brassica juncea [27] = test: Growth regulatory activity on Brassica juncea root assessed as inhibition of germination and seedling growth at 1000 ppm after 10 days

Measured: growth inhibition (GI)

CC1=CCC[C@]2(C)CC[C@@H]3[C@H](OC(=O)[C@H]3C)[C@@H]12
active: Cucumis sativus [1] | Cucumis sativus [2]

C=C1C(=O)O[C@@H]2[C@@H]3[C@](C)(CCC[C@@]3(C)O)CC[C@@H]12
active: Brassica juncea [3] | Echinochloa frumentacea [4] | Echinochloa frumentacea [5] | Brassica juncea [6] | Brassica juncea [7] | Brassica juncea [8] | Cucumis sativus [9] | Brassica juncea [10] | Brassica juncea [11] | Echinochloa frumentacea [12] | Cucumis sativus [13] | Cucumis sativus [14] | Echinochloa frumentacea [15] | Cucumis sativus [16] | Cucumis sativus [17] | Cucumis sativus [18] | Cucumis sativus [19]

C[C@@H]1C(=O)O[C@H]2[C@H]1CC[C@@]1(C)CC=C[C@@](C)(O)[C@H]21
active: Cucumis sativus [20] | Echinochloa frumentacea [4] | Echinochloa frumentacea [21] | Brassica juncea [8] | Brassica juncea [22] | Cucumis sativus [23] | Brassica juncea [24] | Cucumis sativus [14] | Echinochloa frumentacea [15] | Cucumis sativus [18] | Cucumis sativus [19]

C[C@@H]1C(=O)O[C@H]2[C@H]1CC[C@@]1(C)CC[C@@H](O)[C@@](C)(O)[C@H]21
active: Cucumis sativus [20] | Echinochloa frumentacea [5] | Echinochloa frumentacea [21] | Cucumis sativus [2] | Echinochloa frumentacea [25] | Cucumis sativus [26] | Brassica juncea [27] | Cucumis sativus [18]

C[C@@H]1C(=O)O[C@H]2[C@H]1CC[C@@]1(C)CCC[C@@](C)(O)[C@H]21
active: Echinochloa frumentacea [4] | Echinochloa frumentacea [5] | Brassica juncea [7] | Cucumis sativus [23] | Echinochloa frumentacea [12] | Brassica juncea [24] | Cucumis sativus [26] | Cucumis sativus [13] | Cucumis sativus [14] | Echinochloa frumentacea [15] | Cucumis sativus [18] | Cucumis sativus [19]
